This is an account of results in patent US12122761B2, “2-azaspiro[3.4]octane derivatives as M4 agonists” (NOVARTIS AG, priority 2019, dated 2024).

The target in this assay is T1, human cloned CHRM5 receptor (M5_CHO) (Homo sapiens, UniProt P08912).
T1 construct: expressed in transfected cells; host or cells: CHO (M5_CHO)
T1 sequence (P08912 1-532): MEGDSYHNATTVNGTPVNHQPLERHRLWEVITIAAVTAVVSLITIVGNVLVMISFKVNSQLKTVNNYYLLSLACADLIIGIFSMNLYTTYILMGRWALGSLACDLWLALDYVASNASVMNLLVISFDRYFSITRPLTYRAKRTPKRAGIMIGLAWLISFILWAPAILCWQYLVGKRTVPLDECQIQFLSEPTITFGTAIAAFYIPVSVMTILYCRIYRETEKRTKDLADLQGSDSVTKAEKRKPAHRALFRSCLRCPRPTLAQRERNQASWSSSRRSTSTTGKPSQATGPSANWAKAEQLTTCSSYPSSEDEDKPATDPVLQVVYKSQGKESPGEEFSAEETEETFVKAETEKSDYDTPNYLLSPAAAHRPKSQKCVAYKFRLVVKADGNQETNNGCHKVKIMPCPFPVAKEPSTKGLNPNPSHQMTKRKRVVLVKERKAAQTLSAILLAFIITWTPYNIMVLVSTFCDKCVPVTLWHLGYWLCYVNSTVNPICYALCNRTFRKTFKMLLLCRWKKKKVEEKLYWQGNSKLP
Nature of the assay: CHRM5 Ca++ Flux Assay (agonist mode, FDSS 7000EX). The assay is classed as cell-based. The settings on record: for Emax: Percent Activity measured to EC100 of Carbachol, read-out: M5 FDSS PA; for EC50: agonist mode, geometric mean if tested more than once, read-out: M5 FDSS EC50. In short, it runs like this: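 Agonist-mode calcium flux: 11-point dose responses, triplicate wells, fluorescence followed for 3 minutes. Cells are M3_CHO or M5_CHO lines (human receptors) with Ca++ indicator in probenecid-containing HEPES/HBSS buffer. Percent activity is referenced to carbachol EC100, and curves come from four-parameter nonlinear regression.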

SMILES strings stand for the structures.

For the molecule `CC(C)(O)COc1ccccc1C1CCN([C@@H]2CCC3(C2)CN(C(=O)C2COC2)C3)CC1` [Example 7L, (R)-(6-(4-(2-(2-hydroxy-2-methylpropoxy)phenyl)piperidin-1-yl)-2-azaspiro[3.4]octan-2-yl)(oxetan-3-yl)methanone], the Emax amounted to 0% and the concentration giving a half-maximal response (EC50) was > 25 µM.

For `c1ccc(C2CCN([C@@H]3CCC4(C3)CN(c3nnco3)C4)CC2)c(OC2CC3(COC3)C2)c1` [Example 1A, (R)-2-(6-(4-(2-((2-oxaspiro[3.3]heptan-6-yl)oxy)phenyl)piperidin-1-yl)-2-azaspiro[3.4]octan-2-yl)-1,3,4-oxadiazole], the Emax was 0% and the EC50 was > 25 µM.

As to `O=C(C1COC1)N1CC2(CC[C@@H](N3CCC(c4ccccc4OC[C@@H]4CCOC4)CC3)C2)C1` [Example 7E, oxetan-3-yl((R)-6-(4-(2-(((R)-tetrahydrofuran-3-yl)methoxy)phenyl)piperidin-1-yl)-2-azaspiro[3.4]octan-2-yl)methanone], the Emax worked out at 13% and the EC50 turned out to be 1.56 µM.

With `O=C(C1COC1)N1CC2(CC[C@@H](N3CCC(c4ccccc4OC4CCC4)CC3)C2)C1` [Example 7H, (R)-(6-(4-(2-cyclobutoxyphenyl)piperidin-1-yl)-2-azaspiro[3.4]octan-2-yl)(oxetan-3-yl)methanone], the Emax amounted to 0% and the EC50 is > 25 µM.

For `c1ccc(C2CCN([C@@H]3CCC4(C3)CN(c3nncs3)C4)CC2)c(OC2COC2)c1` [Example 3A, (R)-2-(6-(4-(2-(oxetan-3-yloxy)phenyl)piperidin-1-yl)-2-azaspiro[3.4]octan-2-yl)-1,3,4-thiadiazole], the Emax turned out to be 0% and the EC50 was > 25 µM.

In the case of `COc1ccc(F)cc1C1CCN([C@@H]2CCC3(C2)CN(c2ccnnc2)C3)CC1` [Example 5V, (R)-6-(4-(5-fluoro-2-methoxyphenyl)piperidin-1-yl)-2-(pyridazin-4-yl)-2-azaspiro[3.4]octane], the Emax amounted to 0% and the EC50 is > 25 µM.

As to `c1ccc(C2CCN([C@@H]3CCC4(C3)CN(c3cncnc3)C4)CC2)c(OC2CC3(COC3)C2)c1` [Example 1O, (R)-6-(4-(2-((2-oxaspiro[3.3]heptan-6-yl)oxy)phenyl)piperidin-1-yl)-2-(pyrimidin-5-yl)-2-azaspiro[3.4]octane], the Emax is 0% and the EC50 was > 25 µM.

With `COc1ccccc1C1CCN([C@@H]2CCC3(C2)CN(c2cnc(C)cn2)C3)CC1` [Example 5DD, (R)-6-(4-(2-methoxyphenyl)piperidin-1-yl)-2-(5-methylpyrazin-2-yl)-2-azaspiro[3.4]octane], the Emax is 0% and the EC50 was > 25 µM.

`CC1(COc2ccccc2C2CCN([C@@H]3CCC4(C3)CN(c3nnco3)C4)CC2)CCOCC1` [Example 2E, (R)-2-(6-(4-(2-((4-methyltetrahydro-2H-pyran-4-yl)methoxy)phenyl)piperidin-1-yl)-2-azaspiro[3.4]octan-2-yl)-1,3,4-oxadiazole]: the Emax amounted to 0% and the EC50 was > 25 µM.

Turning to `c1ccc(C2CCN([C@@H]3CCC4(C3)CN(c3nncs3)C4)CC2)c(OCC2COC2)c1` [Example 1G, (R)-2-(6-(4-(2-(oxetan-3-ylmethoxy)phenyl)piperidin-1-yl)-2-azaspiro[3.4]octan-2-yl)-1,3,4-thiadiazole], the Emax turned out to be 0% and the EC50 was > 25 µM.

For the molecule `CC(C)(O)CCOc1ccccc1C1CCN([C@@H]2CCC3(C2)CN(c2nncs2)C3)CC1` [Example 3H, (R)-4-(2-(1-(2-(1,3,4-thiadiazol-2-yl)-2-azaspiro[3.4]octan-6-yl)piperidin-4-yl)phenoxy)-2-methylbutan-2-ol], the Emax came to 0% and the EC50 is > 25 µM.

On to `c1ccc(C2CCN([C@@H]3CCC4(C3)CN(c3cncnc3)C4)CC2)c(OC2COC2)c1` [Example 1K, (R)-6-(4-(2-(oxetan-3-yloxy)phenyl)piperidin-1-yl)-2-(pyrimidin-5-yl)-2-azaspiro[3.4]octane], for which the Emax was 0% and the 50% effective concentration (EC50) was > 25 µM.

On to `N#CCCOc1ccccc1C1CCN([C@@H]2CCC3(C2)CN(C(=O)C2COC2)C3)CC1` [Example 7D, (R)-3-(2-(1-(2-(oxetane-3-carbonyl)-2-azaspiro[3.4]octan-6-yl)piperidin-4-yl)phenoxy)propanenitrile], for which the Emax worked out at 16% and the EC50 turned out to be 2.2 µM.
